Patent US9284310B2, “Inhibitors of cytomegalovirus” (Boehringer Ingelheim International GmbH, priority 2012, dated 2016)
pEC50: −log10 of the molar value.

Assays:
[1] = tested on: HCMV AD169 virus; experiment: HCMV AD169 CPE Assay (Example A); format: cell-based; conditions: Human betaherpesvirus 5, AD169, MRC5, 216 h, MRC-5 cells, 9 days, MTS readout
Protocol: This assay format is a CPE (Cytopathic effect)-based assay that determines the ability of compounds to protect cells against infection with a dye reduction assay (MTS of CellTiter 96® AQueous Non-Radioactive Cell Proliferation Assay from Promega). The conversion of MTS into aqueous, soluble formazan is performed by dehydrogenase enzymes found in metabolically active cells. The quantity of formazan product determined by absorbance at 490 nm is directly proportional to the number of living cells in culture.
(§1) Serial dilutions of the DMSO stock compound solution are performed using DMSO in columns 2-11 and 14-23. DMSO alone is present in columns 1, 12, 13 and 24. Four μL of the DMSO serial dilutions is obtained and diluted using […] of D-MEM 5% FBS culture medium to obtain 4% DMSO (7×).
To perform the assay, 10 µL of the freshly prepared 4% DMSO serial dilution plate is added to the assay plate containing 40 μL of MRC-5 cells plated the day before (10000 cells per well). Twenty μL of diluted virus is added to columns 2-12 and 14-24 and only D-MEM 5% FBS medium to uninfected control (columns 1 and 13) for a final DMSO concentration of 0.6%.
The virus dilution is based on the amount of virus required to obtain a Signal-to-Background of 3-4 (generally between 0.1 and 1 μL of virus stock per well or MOI=0.05). The assay plates are incubated at 37° C. with 5% CO2 for 9 days in order to obtain 100% CPE in infected control without compound (columns 12 and 24). Ten μL of freshly mixed room temperature MTS/PMS (1:20 v/v) is added and the plates are incubated at 37° C. with 5% CO2 for 4-5 h (until signal saturation at 2.3 in the 100% CPE control). The plates are sealed with TopSeal for biosafety and read on the Envision plate reader (Perkin-Elmer) or equivalent at OD 492 nm.

[2] = tested on: HCMV AD169-Bac-Luc2 US2-US6 clone #26 virus; experiment: HCMV AD169-Bac Luciferase Assay (Example B); format: cell-based, Human Cytomegalovirus; conditions: Human betaherpesvirus 5, AD169, MRC5, 72 h, read-out: EC50 Example B
From the text: This assay format is a luciferase reporter-based assay that determines the ability of compounds to inhibit the infection by detecting a luciferase signal decrease following the addition of BIGlo substrate (preparation indicated below) directly in the culture media. Mono-oxygenation of luciferin is catalyzed by luciferase in the presence of Mg2+, ATP and molecular oxygen. The generation of oxyluciferin is a luminescent reaction that can be detected with the proper platereader. Human Cytomegalovirus AD169-Bac is obtained from Dr. Thomas Shenk at Princeton University (reference paper Yu et al. 2002—J. Virol. 76 (5):2316-2328, herein incorpoarated by reference) and modified by recombineering to introduce a humanized firefly luciferase gene (Luc2) at the US2-US6 position in the HCMV genome. The virus is expanded in MRC-5 cells.
as §1
To perform the assay, 7 μL of the freshly prepared 4% DMSO serial dilution plate is added to the assay plate containing […] of MRC-5 cells plated the day before (10000 cells per well). Seventeen μL of diluted virus is added to columns 2-12 and 14-24 and only D-MEM 5% FBS medium to uninfected control (columns 1 and 13) for a final DMSO concentration of 0.6%. The virus dilution is based on the amount of virus required to obtain the highest luciferase signal possible without CPE (generally between 0.05 and 1 μL of virus stock per well or MOI=0.02). The assay plates are incubated at 37° C. with 5% CO2 for 3 days. Fifteen μL of room temperature BIGlo buffer is added to room temperature assay plates also incubated at room temperature for 15 minutes. The plates are sealed with TopSeal for biosafety and the luminescence signal is read on the TopCount plate reader (Perkin-Elmer) or equivalent.

[3] = tested on: HCMV AD169 virus; experiment: HCMV AD169 qPCR 96-Well Assay (Example C); format: cell-based; conditions: Human betaherpesvirus 5, AD169, MRC5, 72 h; qPCR of viral DNA, MRC-5 cells, 3 days
Protocol: The hCMV quantitative PCR (qPCR) assay evaluates the ability of a compound to inhibit, directly or indirectly, the replication of hCMV viral DNA during the first 72 h following the infection. Compounds that inhibit either entry or the hCMV polymerase are active in this assay. Compounds are tested in the qPCR assay in 96-well plates, using a 9-point dose-response with 8 compounds for each 96-well plate. The assay was adapted from the method described by Schnepf et al., Rapid determination of antiviral drug susceptibility of human cytomegalovirus by real-time PCR, Antiviral Research 81 (2009) 64-67.
Final Concentrations: • 10 mM Tris-HCl pH8.0 • 50 mM KCl • 2 mM MgCl2 • 0.45% Tween20 • 0.45% Nonidet P40
Serial dilutions of the DMSO stock compound solution are performed using DMSO in columns 2-10. DMSO alone is present in columns 1 and 11. Column 12 remains empty. Diluted compounds are further diluted with DMEM 5% FBS cell culture medium.
To perform the assay, 25 μL of inhibitor dilutions freshly prepared is added to the assay plate containing 50 μL of MRC-5 cells plated the day before (30000 cells per well). In a 9 point dose-response, column 1 contains mock infected cells and serves at negative control, with the appropriate concentration of DMSO, columns 2 to 10 contain compound dilutions and column 11 contains infected cells, with the appropriate concentration of DMSO and serves as the positive control. Column 12 serves for the standard curve in the qPCR process. Twenty-five μL of virus diluted in DMEM 5% FBS medium (to infect at MOI=0.05) is added to columns 2-11 and only D-MEM 5% FBS medium to uninfected control (column 1) for a final DMSO concentration of 0.6%. Incubate plates at 37° C. in 5% CO2 incubator for 3 days. Whole cell lysates are then obtained by adding 100 μL of Cell lysis buffer to each well including freshly added Proteinase K at a ratio of 1:5 (i.e. 200 μL Proteinase K:1000 μL Cell Lysis buffer) and incubating the assay plate at 56° C. for 1 h. Plates are centrifuged at 1300 rpm for 2 minutes to remove any condensation before proceeding with the qPCR.
The cell lysate is carefully pipetted up and down to mix well and diluted 1:40 in H2O to give a final dilution of 1:80 relative to the 100 μL of lysis buffer that Is added to the cells. 5 μL of diluted lysate is used for the qPCR reaction. An incubation of 5 minutes at 95° C. in a PCR machine is required to inactivate the Proteinase K. The cell lysates can be stored at −20° C. or used to perform qPCR immediately.
A 81 bp fragment of US17 gene from AD169 is amplified by PCR using primers qHCMV7 and qHCMV8. The PCR product is cloned into pCR4 TOPO vector (Invitrogen) and a clone harboring the insert is selected. A mitochondrial DNA is also added to normalize the HCMV copy number. Serial dilutions of the US17 plasmid and mitochondrial DNA are performed in heat-inactivated lysis buffer at the same dilution as the cell lysates (1:80). Usually, a standard curve ranging from 10E6 to 10E2 copies (per well) is suitable.
A typical qPCR reaction consists of the following:
A qPCR cycle consists of an initial denaturation of DNA and activation of the Taq enzyme at 95° C. for 10 min followed by 45 cycles of 15 seconds at 95° C. and 1 min at 60° C. Fluorescence is measured at each cycle, following the elongation step at 60° C. The reaction, data acquisition and analysis are performed using AppliedBiosystems 7500 Real time PCR system or other suitable real-time PCR system.

| Structure (SMILES) | pEC50 [1] | pEC50 [2] | pEC50 [3] |
| --- | --- | --- | --- |
| O=C(Nc1ccc(-c2nnc(Nc3ccccc3)[nH]2)cc1)c1cscn1 [Compound 1039] | 6.26 | 6.99 | 6.41 |
| O=C(Nc1ccc(-c2cnc(-c3cccc(C(F)(F)F)c3)[nH]2)cn1)c1cscn1 [Compound 1052] | 5.38 | 6.35 | 5.74 |
